Each structure is given as a SMILES string.

One assay has as its target T1, human PPARγ (Homo sapiens, UniProt P37231).
T1 construct: expressed in transfected cells
T1 sequence (P37231 1-477 isoform P37231-2): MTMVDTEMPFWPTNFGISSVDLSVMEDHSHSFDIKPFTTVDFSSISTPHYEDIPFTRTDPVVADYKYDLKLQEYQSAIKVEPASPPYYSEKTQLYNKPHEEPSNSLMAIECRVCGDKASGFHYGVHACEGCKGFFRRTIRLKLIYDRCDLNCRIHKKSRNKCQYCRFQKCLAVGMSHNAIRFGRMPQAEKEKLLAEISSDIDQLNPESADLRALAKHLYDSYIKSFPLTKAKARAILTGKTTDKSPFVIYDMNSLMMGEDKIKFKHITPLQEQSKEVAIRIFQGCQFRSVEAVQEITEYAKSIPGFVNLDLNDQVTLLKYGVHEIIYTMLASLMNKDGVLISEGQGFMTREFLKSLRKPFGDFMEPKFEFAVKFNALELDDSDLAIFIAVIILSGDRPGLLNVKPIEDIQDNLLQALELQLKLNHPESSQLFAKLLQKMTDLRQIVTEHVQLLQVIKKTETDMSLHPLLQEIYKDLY
T1 sequence (P19793 1-462 partner): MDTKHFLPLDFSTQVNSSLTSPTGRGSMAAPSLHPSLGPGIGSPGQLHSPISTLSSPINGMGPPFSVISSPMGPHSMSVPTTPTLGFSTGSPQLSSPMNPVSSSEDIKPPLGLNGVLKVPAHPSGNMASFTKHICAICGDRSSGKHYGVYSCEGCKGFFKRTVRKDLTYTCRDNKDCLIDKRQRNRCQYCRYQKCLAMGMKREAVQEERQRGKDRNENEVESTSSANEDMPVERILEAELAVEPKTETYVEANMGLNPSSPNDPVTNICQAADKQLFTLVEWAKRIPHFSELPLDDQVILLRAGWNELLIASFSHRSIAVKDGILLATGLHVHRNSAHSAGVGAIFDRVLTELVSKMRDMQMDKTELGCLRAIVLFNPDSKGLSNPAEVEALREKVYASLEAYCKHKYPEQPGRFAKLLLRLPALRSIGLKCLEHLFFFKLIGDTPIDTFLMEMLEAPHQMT
In words: PPARγ agonistic activity: luciferase reporter assay in PPARγ:RXRα:4ERPP/CHO-K1 cells. Type of assay: cell-based. To be noted: CHO-K1, test compound 10^−6 M; luciferase activity of control compound X (1 μM) = 100%, non-administration group = 0%. The procedure, abridged:
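CHO-K1 cells stably carrying hPPARγ/RXRα and a 4ERPP luciferase reporter, dosed with test compound for 1 day at 37 °C in Ham's F12 with 0.1% fatty acid-free BSA. Luciferase read by luminescence; activity given as % of 1 μM control compound X (100%) versus untreated (0%).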
A general note: Reporter assays use an easily measured gene product as a stand-in for the process of interest.

Another assay addresses T2, human AT1 receptor (Homo sapiens, UniProt P30556).
T2 construct: expressed in transfected cells; membrane fraction
T2 sequence (P30556 1-359): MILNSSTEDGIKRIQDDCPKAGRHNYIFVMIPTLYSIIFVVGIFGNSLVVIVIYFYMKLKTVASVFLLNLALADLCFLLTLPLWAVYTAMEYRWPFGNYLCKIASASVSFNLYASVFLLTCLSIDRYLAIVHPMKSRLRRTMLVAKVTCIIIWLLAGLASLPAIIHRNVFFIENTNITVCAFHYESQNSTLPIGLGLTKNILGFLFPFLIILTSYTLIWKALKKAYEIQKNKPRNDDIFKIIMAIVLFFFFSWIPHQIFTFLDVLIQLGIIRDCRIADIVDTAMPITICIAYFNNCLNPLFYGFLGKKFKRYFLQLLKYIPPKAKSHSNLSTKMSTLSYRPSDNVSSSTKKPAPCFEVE
Nature of the assay: AT1 receptor antagonistic activity: [125I]-angiotensin II binding assay on human AT1 receptor-expressing CHO-K1 cellular membrane fraction. The note with it: 22.5 pM [125I]-angiotensin II, 1 hr room temperature. The procedure, abridged: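 Competition binding used radiolabelled angiotensin II on stably transfected CHO-K1 membrane fractions in Tris pH 7.4/MgCl2 buffer, optionally containing 0.3 mg/mL fatty acid-free BSA, 1 hr at room temperature. Filtration onto GF/C separated bound tracer, and nonspecific binding was measured with candesartan.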

As usually defined, the IC50 is the concentration needed to halve the response being measured. `CCCCc1c(Cc2ccc(-c3ccccc3-c3noc(=O)[nH]3)cc2)c(=O)n([C@H]2C[C@@H](C)O[C@@H](C)C2)c2ncnn12` [Example 139, 7-butyl-4-[(2R,4r,6S)-2,6-dimethyltetrahydro-2H-pyran-4-yl]-6-{[2′-(5-oxo-4,5-dihydro-1,2,4-oxadiazol-3-yl)biphenyl-4-yl]methyl}[1,2,4]triazolo[1,5-a]pyrimidin-5(4H)-one] came in with an activation at 1 µM at human PPARγ of 6%. In addition, at human AT1 receptor, the IC50 amounted to 1.7 nM.
Regarding `CCCc1c(Cc2ccc(-c3ccccc3-c3noc(=O)[nH]3)cc2)c(=O)n(C2CCC(C)OC2)c2nc(C)nn12` (centres unmarked) [Example 144, 2-methyl-4-(6-methyltetrahydro-2H-pyran-3-yl)-6-{[2′-(5-oxo-4,5-dihydro-1,2,4-oxadiazol-3-yl)biphenyl-4-yl]methyl}-7-propyl[1,2,4]triazolo[1,5-a]pyrimidin-5(4H)-one], the activation at 1 µM at human PPARγ was 20%. This compound displayed an IC50 on human AT1 receptor of 1.4 nM.
`CCCCc1c(Cc2ccc(-c3ccccc3-c3noc(=O)[nH]3)cc2)c(=O)n(C2CCC(O)CC2)c2ncnn12` (centres unmarked) [Example 147, 7-butyl-4-(4-hydroxycyclohexyl)-6-{[2′-(5-oxo-4,5-dihydro-1,2,4-oxadiazol-3-yl)biphenyl-4-yl]methyl}[1,2,4]triazolo[1,5-a]pyrimidin-5(4H)-one] had an activation at 1 µM at human PPARγ of 26%. Also, the IC50 on human AT1 receptor came out at 1 nM.
For `CCCCc1c(Cc2ccc(-c3ccccc3-c3noc(=O)[nH]3)cc2)c(=O)n(C2CCC(OC)CC2)c2ncnn12` (centres unmarked) [Example 148, 7-butyl-4-(4-methoxycyclohexyl)-6-{[2′-(5-oxo-4,5-dihydro-1,2,4-oxadiazol-3-yl)biphenyl-4-yl]methyl}[1,2,4]triazolo[1,5-a]pyrimidin-5(4H)-one] the same measures were 52% and 1.9 nM.
Taken in the same sequence, the figures for `CCCc1c(Cc2ccc(-c3ccccc3-c3noc(=O)[nH]3)cc2)c(=O)n([C@H]2CC[C@]3(CCCO3)CC2)c2ncnn12` [Example 150, 4-[(5S,8S)-1-oxaspiro[4.5]dec-8-yl]-6-{[2′-(5-oxo-4,5-dihydro-1,2,4-oxadiazol-3-yl)biphenyl-4-yl]methyl}-7-propyl[1,2,4]triazolo[1,5-a]pyrimidin-5(4H)-one] were 58% and 1.4 nM.
For `CCCc1c(Cc2ccc(-c3ccccc3-c3noc(=O)[nH]3)cc2)c(=O)n([C@H]2CC[C@@]3(CCCO3)CC2)c2ncnn12` [Example 151, 4-[(5R,8R)-1-oxaspiro[4.5]dec-8-yl]-6-{[2′-(5-oxo-4,5-dihydro-1,2,4-oxadiazol-3-yl)biphenyl-4-yl]methyl}-7-propyl[1,2,4]triazolo[1,5-a]pyrimidin-5(4H)-one], the activation at 1 µM on human PPARγ is 35%. Also, the IC50 at human AT1 receptor stood at 1.6 nM.
Take `CCCc1c(Cc2ccc(-c3ccccc3-c3noc(=O)[nH]3)cc2)c(=O)n(C2CCC(OC)CC2)c2ncnn12` (centres unmarked) [Example 152, 4-(4-methoxycyclohexyl)-6-{[2′-(5-oxo-4,5-dihydro-1,2,4-oxadiazol-3-yl)biphenyl-4-yl]methyl}-7-propyl[1,2,4]triazolo[1,5-a]pyrimidin-5(4H)-one]: the activation at 1 µM on human PPARγ is 39%. The compound also showed an IC50 at human AT1 receptor of 2.4 nM.
Taken in the same sequence, the figures for `C=CCOC1CCC(n2c(=O)c(Cc3ccc(-c4ccccc4-c4noc(=O)[nH]4)cc3)c(CCC)n3ncnc23)CC1` (centres unmarked) [Example 153, 6-{[2′-(5-oxo-4,5-dihydro-1,2,4-oxadiazol-3-yl)biphenyl-4-yl]methyl}-4-[4-(prop-2-en-1-yloxy)cyclohexyl]-7-propyl[1,2,4]triazolo[1,5-a]pyrimidin-5(4H)-one] were 53% and 1.9 nM.
For `CCCc1c(Cc2ccc(-c3ccccc3-c3noc(=O)[nH]3)cc2)c(=O)n(C2CCC(OCCOC)CC2)c2ncnn12` (centres unmarked) [Example 154, 4-[4-(2-methoxyethoxy)cyclohexyl]-6-{[2′-(5-oxo-4,5-dihydro-1,2,4-oxadiazol-3-yl)biphenyl-4-yl]methyl}-7-propyl[1,2,4]triazolo[1,5-a]pyrimidin-5(4H)-one], the activation at 1 µM on human PPARγ is 33%. For the same compound, on human AT1 receptor, the IC50 was 2.1 nM.
`CCCc1c(Cc2ccc(-c3ccccc3-c3noc(=O)[nH]3)c(C)c2)c(=O)n([C@H]2CC[C@H](OCC(C)(C)O)CC2)c2nc(C)nn12` [Example 155, 4-[trans-4-(2-hydroxy-2-methylpropoxy)cyclohexyl]-2-methyl-6-{[2-methyl-2′-(5-oxo-4,5-dihydro-1,2,4-oxadiazol-3-yl)biphenyl-4-yl]methyl}-7-propyl[1,2,4]triazolo[1,5-a]pyrimidin-5(4H)-one]: the activation at 1 µM on human PPARγ was determined as 18%. For the same compound, the IC50 at human AT1 receptor was determined as 1.6 nM.
In turn, `CCCc1c(Cc2ccc(-c3ccccc3-c3noc(=O)[nH]3)cc2)c(=O)n([C@H]2CC[C@@H](OCCO)CC2)c2ncnn12` [Example 163, 4-[cis-4-(2-hydroxyethoxy)cyclohexyl]-6-{[2′-(5-oxo-4,5-dihydro-1,2,4-oxadiazol-3-yl)biphenyl-4-yl]methyl}-7-propyl[1,2,4]triazolo[1,5-a]pyrimidin-5(4H)-one] yielded an activation at 1 µM on human PPARγ of 40%. The IC50 on human AT1 receptor was found to be 1.6 nM.
For `CCCc1c(Cc2ccc(-c3ccccc3-c3noc(=O)[nH]3)cc2)c(=O)n([C@H]2CC[C@H](OCCO)CC2)c2ncnn12` [Example 164, 4-[trans-4-(2-hydroxyethoxy)cyclohexyl]-6-{[2′-(5-oxo-4,5-dihydro-1,2,4-oxadiazol-3-yl)biphenyl-4-yl]methyl}-7-propyl[1,2,4]triazolo[1,5-a]pyrimidin-5(4H)-one] the same measures were 18% and 1 nM.
For `CCCc1c(Cc2ccc(-c3ccccc3-c3noc(=O)[nH]3)cc2F)c(=O)n([C@H]2CC[C@@H](O)CC2)c2ncnn12` [Example 166, 6-{[3-fluoro-2′-(5-oxo-4,5-dihydro-1,2,4-oxadiazol-3-yl)biphenyl-4-yl]methyl}-4-(cis-4-hydroxycyclohexyl)-7-propyl[1,2,4]triazolo[1,5-a]pyrimidin-5(4H)-one] the same measures were 22% and 1.3 nM.
Take `CCCc1c(Cc2ccc(-c3ccccc3-c3noc(=O)[nH]3)cc2F)c(=O)n([C@H]2CC[C@H](O)CC2)c2ncnn12` [Example 167, 6-{[3-fluoro-2′-(5-oxo-4,5-dihydro-1,2,4-oxadiazol-3-yl)biphenyl-4-yl]methyl}-4-(trans-4-hydroxycyclohexyl)-7-propyl[1,2,4]triazolo[1,5-a]pyrimidin-5(4H)-one]: the activation at 1 µM on human PPARγ was 43%. The same compound displayed an IC50 on human AT1 receptor of 0.8 nM.
Compound `CCCc1c(Cc2ccc(-c3ccccc3-c3noc(=O)[nH]3)cc2)c(=O)n([C@H]2CC[C@H](C(=O)OCC)CC2)c2ncnn12` [Example 168, ethyl trans-4-[5-oxo-6-{[2′-(5-oxo-4,5-dihydro-1,2,4-oxadiazol-3-yl)biphenyl-4-yl]methyl}-7-propyl[1,2,4]triazolo[1,5-a]pyrimidin-4(5H)-yl]cyclohexanecarboxylate] returned an activation at 1 µM on human PPARγ of 54%. At human AT1 receptor, the IC50 turned out to be 1.4 nM.
Taken in the same sequence, the figures for `CCCc1c(Cc2ccc(-c3ccccc3-c3noc(=O)[nH]3)cc2)c(=O)n([C@H]2CC[C@H](c3nc(C)no3)CC2)c2ncnn12` [Example 169, 4-[trans-4-(3-methyl-1,2,4-oxadiazol-5-yl)cyclohexyl]-6-{[2′-(5-oxo-4,5-dihydro-1,2,4-oxadiazol-3-yl)biphenyl-4-yl]methyl}-7-propyl[1,2,4]triazolo[1,5-a]pyrimidin-5(4H)-one] were 54% and 1.4 nM.

Source of the values: patent US8283353B2, “Fused ring compound and use thereof” (Takeda Pharmaceutical Company Limited, priority 2009, dated 2012).
